# From patent US20120121540A1 (priority 2007, published 2012)
# Assay: HCV replicon assay (luciferase reporter, ET cell line)
# Assay type: cell-based
# Settings: Hepatitis C virus, HCV replicon luciferase activity in ET cells
# In short: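 ET cells carry a stable luciferase-ubiquitin-neo/NS3-5B subgenomic HCV replicon with adaptive mutations. Compounds (0.1 nM to […], 0.5% DMSO) were added 24 h after plating, and luciferase was read 48-72 h later. EC50 came from 10-point 2-fold dilutions fitted to a Hill equation; TC50 was measured in parallel by WST-1.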
row,SMILES,inhibition at 10 µM [%]
1,"O=C(c1nc2c(C(F)(F)F)cc(-c3ccco3)cn2c1Cl)N1CCN(c2ccccc2)CC1 [Compound 323, (3-Chloro-6-furan-2-yl-8-trifluoromethyl-imidazo[1,2-a]pyridin-2-yl)-(4-phenyl-piperazin-1-yl)-methanone]",54.6
2,"CC(=O)NCc1c(-c2ccoc2)cc(C(F)(F)F)c2nc(C(=O)N3CCC(c4cccc(F)c4)C3)cn12 (centres unmarked) [Compound 637, N-{[2-{[3-(3-fluorophenyl)pyrrolidin-1-yl]carbonyl}-6-(furan-3-yl)-8-(trifluoromethyl)imidazo[1,2-a]pyridin-5-yl]methyl}acetamide]",60.8
3,"O=C(NCc1cccs1)c1nc2c(/C=C/c3ccccc3)cc(-c3ccccc3)cn2c1Cl [Compound 359, 3-Chloro-6-phenyl-8-styryl-imidazo[1,2-a]pyridine-2-carboxylic Acid (thiophen-2-ylmethyl)-amide]",100
4,"O=C(c1nc2c(C(F)(F)F)cc(-c3cn[nH]c3)cn2c1Br)N1CC=C(c2cscn2)CC1 [Compound 609, [3-Bromo-6-(1H-pyrazol-4-yl)-8-trifluoromethyl-imidazo[1,2-a]pyridin-2-yl]-(4-thiazol-4-yl-3,6-dihydro-2H-pyridin-1-yl)-methanone]",94.1
5,"O=C(c1nc2c(C(F)(F)F)cc(-c3ccoc3)cn2c1Cl)N1CCC(c2cccc(F)c2)CC1 [Compound 276, (3-Chloro-6-furan-3-yl-8-trifluoromethyl-imidazo[1,2-a]pyridine-2-yl)-[4-(3-fluoro-phenyl)-piperidin-1-yl]-methanone]",74
6,"COc1ccc(C2CCN(C(=O)c3nc4c(C(F)(F)F)cc(-c5ccoc5)cn4c3Cl)C2)cc1 (centres unmarked) [Compound 335, (3-Chloro-6-furan-3-yl-8-trifluoromethyl-imidazo[1,2-a]pyridin-2-yl)-[3-(4-methoxy-phenyl)-pyrrolidin-1-yl]-methanone]",76.3
7,"CN(Cc1cccs1)C(=O)c1nc2c(C(F)(F)F)cc(-c3ccoc3)cn2c1Cl [Compound 332, 3-Chloro-6-furan-3-yl-8-trifluoromethyl-imidazo[1,2-a]pyridine-2-carboxylic Acid Methyl-thiophen-2-ylmethyl-amide]",37.7
8,"O=C(c1nc2c(C(F)(F)F)cc(-c3ccco3)cn2c1Cl)N1CCCC1c1ccc(F)cc1 (centres unmarked) [Compound 329, (3-Chloro-6-furan-2-yl-8-trifluoromethyl-imidazo[1,2-a]pyridin-2-yl)-[2-(4-fluoro-phenyl)-pyrrolidin-1-yl]-methanone]",97.6
9,"O=C(c1nc2c(C(F)(F)F)cc(-c3ccoc3)cn2c1Cl)N1CCC=C(c2ccccc2F)C1 [Compound 591, (3-Chloro-6-furan-3-yl-8-trifluoromethyl-imidazo[1,2-a]pyridine-2-yl)-[5-(2-fluoro-phenyl)-3,6-dihydro-2H-pyridin-1-yl]-methanone]",96.9
10,"O=C(NCc1cccs1)c1nc2c(C(F)(F)F)cc(-c3cccc(F)c3)cn2c1-c1cn[nH]c1 [Compound 301, 6-(3-Fluoro-phenyl)-3-(1H-pyrazol-4-yl)-8-trifluoromethyl-imidazo[1,2-a]pyridine-2-carboxylic Acid (thiophen-2-ylmethyl)-amide]",79.9
11,"CC(=O)Nc1nc(-c2cc(C(F)(F)F)c3nc(C(=O)N4CCC(c5cccc(F)c5)C4)c(Cl)n3c2)cs1 (centres unmarked) [Compound 644, N-(4-{3-Chloro-2-[3-(3-fluoro-phenyl)-pyrrolidine-1-carbonyl]-8-trifluoromethyl-imidazo[1,2-a]pyridin-6-yl}-thiazol-2-yl)-acetamide]",59.6
12,"O=C(Cc1ccccc1)NCc1nc2c(C(F)(F)F)cc(-c3ccoc3)cn2c1Cl [Compound 389, N-(3-Chloro-6-furan-3-yl-8-trifluoromethyl-imidazo[1,2-a]pyridin-2-ylmethyl)-2-phenyl-acetamide]",45.3
13,"O=C(c1cn2cc(-c3cn[nH]c3)cc(C(F)(F)F)c2n1)N1CC=C(c2nccs2)CC1 [Compound 612, [6-(1H-pyrazol-4-yl)-8-(trifluoromethyl)imidazo[1,2-a]pyridin-2-yl][4-(1,3-thiazol-2-yl)-3,6-dihydropyridin-1(2H)-yl]methanone]",59.3
14,"CN(C)c1cccc(-c2cc(C(F)(F)F)c3nc(C(=O)NCc4cccs4)c(Cl)n3c2)c1 [Compound 286, 3-Chloro-6-(3-dimethylamino-phenyl)-8-trifluoromethyl-imidazo[1,2-a]pyridine-2-carboxylic Acid (thiophen-2-ylmethyl)-amide]",57.9
15,"N#Cc1cc(-c2ccccc2)cc2cc(C(=O)NCc3cccs3)nn12 [Compound 108, 7-Cyano-5-phenyl-pyrazolo[1,5-a]pyridine-2-carboxylic acid (thiophen-2-ylmethyl)-amide]",52.2
16,"COC(=O)Cc1c(C(=O)N2CCC(c3ccc(F)cc3)C2)nc2c(C(F)(F)F)cc(-c3ccoc3)cn12 (centres unmarked) [Compound 235, {2-[3-(4-Fluoro-phenyl)-pyrrolidine-1-carbonyl]-6-furan-3-yl-8-trifluoromethyl-imidazo[1,2-a]pyridin-3-yl}-acetic Acid Methyl Ester]",96.6

row,SMILES,inhibition at 10 µM [%]
1,"O=C(c1nc2c(C(F)(F)F)cc(-c3ccoc3)cn2c1Cl)N1CC=C(c2ccccc2F)CC1 [Compound 555, (3-Chloro-6-furan-3-yl-8-trifluoromethyl-imidazo[1,2-a]pyridin-2-yl)-[4-(2-fluoro-phenyl)-3,6-dihydro-2H-pyridin-1-yl)-methanone]",95.5
2,"O=C(NCc1cccs1)c1nn2c(I)cc(-c3ccccc3)cc2c1Cl [Compound 121, 3-Chloro-7-iodo-5-phenyl-pyrazolo[1,5-a]pyridine-2-carboxylic Acid (thiophen-2-ylmethyl)-amide]",73.9
3,"O=C(c1nc2c(C(F)(F)F)cc(-c3ccoc3)cn2c1Cl)N1CC=C(c2ccoc2)C1 [Compound 429, (3-Chloro-6-furan-3-yl-8-trifluoromethyl-imidazo[1,2-a]pyridin-2-yl)-(3-furan-3-yl-2,5-dihydro-pyrrol-1-yl)-methanone]",98
4,"O=C(c1nc2c(C(F)(F)F)cc(-c3ccoc3)cn2c1Cl)N1CCC(c2ccccc2)=N1 [Compound 477, (3-Chloro-6-furan-3-yl-8-trifluoromethyl-imidazo[1,2-a]pyridin-2-yl)-(3-phenyl-4,5-dihydro-pyrazol-1-yl)-methanone]",97.6
5,"O=C(c1nc2c(C(F)(F)F)cc(-c3ccoc3)cn2c1Br)N1CCC(c2cccc(F)c2)C1 (centres unmarked) [Compound 446, (3-Bromo-6-furan-3-yl-8-trifluoromethyl-imidazo[1,2-a]pyridin-2-yl)-(3-(3-fluoro-phenyl)-pyrrolidin-1-yl)-methanone]",95.8
6,"CC(C)c1cc(-c2ccccc2)cn2c(Br)c(C(=O)NCc3cccs3)nc12 [Compound 645, 3-Bromo-8-isopropyl-6-phenyl-imidazo[1,2-a]pyridine-2-carboxylic acid (thiophen-2-ylmethyl)-amide]",87.1
7,"O=C(NCc1cccs1)c1nc2c(C(F)(F)F)cc(-c3cnoc3)cn2c1Cl [Compound 288, 3-Chloro-6-isoxazol-4-yl-8-trifluoromethyl-imidazo[1,2-a]pyridine-2-carboxylic Acid(thiophen-2-ylmethyl)-amide]",85
8,"O=C(c1nc2c(C(F)(F)F)cc(-c3ccoc3)cn2c1Cl)N1CC=C(c2cncnc2)CC1 [Compound 618, [3-chloro-6-(furan-3-yl)-8-(trifluoromethyl)imidazo[1,2-a]pyridin-2-yl][4-(pyrimidin-5-yl)-3,6-dihydropyridin-1(2H)-yl]methanone]",95.9
9,"O=C(NCc1cccs1)c1cc2cc(-c3ccoc3)cc(Cl)c2[nH]1 [Compound 348, 7-Chloro-5-furan-3-yl-1H-indole-2-carboxylic Acid (thiophen-2-ylmethyl)-amide]",0.1
10,"O=C(c1nc2c(C(F)(F)F)cc(-c3ccoc3)cn2c1Cl)N1CCC(n2cnc3ccccc32)CC1 [Compound 605, (4-Benzoimidazol-1-yl-piperidin-1-yl)-(3-chloro-6-furan-3-yl-8-trifluoromethyl-imidazo[1,2-a]pyridin-2-yl)-methanone]",3.1
11,"O=C(c1nc2c(C(F)(F)F)cc(-c3ccoc3)cc2[nH]1)N1CCC(c2ccc(F)cc2)C1 (centres unmarked) [Compound 351, [3-(4-Fluoro-phenyl)-pyrrolidin-1-yl]-(6-furan-3-yl-4-trifluoromethyl-1H-benzoimidazol-2-yl)-methanone]",52.1
12,"O=C(NCc1cccs1)c1cc2cc(-c3ccco3)cc(C(F)(F)Cl)n2n1 [Compound 133, 7-(Chloro-difluoro-methyl)-5-furan-2-yl-pyrazolo[1,5-a]pyridine-2-carboxylic Acid (thiophen-2-ylmethyl)-amide]",99.8
13,"O=C(c1nc2c(C(F)(F)F)cc(-c3ccoc3)cn2c1Cl)N1CC=C(c2cccs2)C1 [Compound 422, (3-Chloro-6-furan-3-yl-8-trifluoromethyl-imidazo[1,2-a]pyridin-2-yl)-(3-thiophen-2-yl-2,5-dihydro-pyrrol-1-yl)-methanone]",99.8
14,"O=C(Cc1ccccc1)NCc1cn2cc(-c3ccoc3)cc(C(F)(F)F)c2n1 [Compound 390, N-(6-Furan-3-yl-8-trifluoromethyl-imidazo[1,2-a]pyridin-2-ylmethyl)-2-phenyl-acetamide]",95.8
15,"O=C(c1nc2c(C(F)(F)F)cc(-c3ccoc3)cn2c1Cl)N1CC=C(c2c[nH]cn2)CC1 [Compound 558, (3-Chloro-6-furan-3-yl-8-trifluoromethyl-imidazo[1,2-a]pyridin-2-yl)-[4-(1H-imidazol-4-yl)-3,6-dihydro-2H-pyridin-1-yl]-methanone]",89.3
16,"Cn1cc(C2=CCN(C(=O)c3nc4c(C(F)(F)F)cc(-c5ccoc5)cn4c3Cl)CC2)cn1 [Compound 578, (3-Chloro-6-furan-3-yl-8-trifluoromethyl-imidazo[1,2-a]pyridin-2-yl)-[4-(1-methyl-1H-pyrazol-4-yl)-3,6-dihydro-2H-pyridin-1-yl)-methanone]",97.2
